Here are results for three compounds from patent US20250368678A1, “19-NOR-C3,3-DISUBSTITUTED C21-AZACYCLO-S[…] AND METHOD FOR USING SAME” (SHANDONG LUYE PHARMACEUTICAL CO., LTD., priority 2022, published 2025).

One may read the EC50 as the concentration needed to bring the measured effect to its halfway point. Low values mean higher potency in that assay, high ones lower potency in that assay. A word on the Emax: it is the greatest response seen or fitted, relative to the assay's reference. The CLint scaled is a measure of how fast metabolising enzymes remove a compound, apart from limits set by blood flow. As a reminder, the half-life is how long it takes for the measured level to halve. The low end stands for fast loss, the high end for slow loss.

For one data set, the target named is T1, α1β2γ2 GABA receptors (α1β2γ2-CHO-TRex stable cell strain) (Homo sapiens, UniProt P14867+P47870).
T1 construct: expressed in transfected cells
T1 sequence (P14867 28-456): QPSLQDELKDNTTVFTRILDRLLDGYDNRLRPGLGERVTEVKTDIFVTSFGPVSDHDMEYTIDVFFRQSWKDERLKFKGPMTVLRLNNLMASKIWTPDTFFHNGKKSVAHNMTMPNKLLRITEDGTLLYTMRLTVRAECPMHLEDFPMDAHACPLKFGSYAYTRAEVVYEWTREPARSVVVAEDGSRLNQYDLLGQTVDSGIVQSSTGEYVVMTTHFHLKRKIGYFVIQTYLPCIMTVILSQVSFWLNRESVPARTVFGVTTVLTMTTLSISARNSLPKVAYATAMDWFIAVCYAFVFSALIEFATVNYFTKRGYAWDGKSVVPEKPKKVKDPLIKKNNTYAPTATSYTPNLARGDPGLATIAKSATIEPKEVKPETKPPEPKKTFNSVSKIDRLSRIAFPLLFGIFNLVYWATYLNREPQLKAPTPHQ
T1 sequence (P47870 25-512 limits assumed): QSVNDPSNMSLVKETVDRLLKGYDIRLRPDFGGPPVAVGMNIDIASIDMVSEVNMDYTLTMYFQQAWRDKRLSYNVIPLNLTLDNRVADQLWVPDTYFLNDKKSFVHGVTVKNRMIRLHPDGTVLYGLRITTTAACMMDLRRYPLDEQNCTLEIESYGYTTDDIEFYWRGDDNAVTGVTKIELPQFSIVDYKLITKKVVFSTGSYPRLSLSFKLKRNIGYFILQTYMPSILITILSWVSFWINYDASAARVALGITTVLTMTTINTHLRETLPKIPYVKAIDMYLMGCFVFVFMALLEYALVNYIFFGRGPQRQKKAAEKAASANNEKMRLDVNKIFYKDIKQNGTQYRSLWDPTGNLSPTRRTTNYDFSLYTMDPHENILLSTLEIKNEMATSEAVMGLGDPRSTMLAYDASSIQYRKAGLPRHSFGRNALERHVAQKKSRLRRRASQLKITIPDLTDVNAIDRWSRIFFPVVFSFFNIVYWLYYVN
T1 sequence (P18507 40-475 partner): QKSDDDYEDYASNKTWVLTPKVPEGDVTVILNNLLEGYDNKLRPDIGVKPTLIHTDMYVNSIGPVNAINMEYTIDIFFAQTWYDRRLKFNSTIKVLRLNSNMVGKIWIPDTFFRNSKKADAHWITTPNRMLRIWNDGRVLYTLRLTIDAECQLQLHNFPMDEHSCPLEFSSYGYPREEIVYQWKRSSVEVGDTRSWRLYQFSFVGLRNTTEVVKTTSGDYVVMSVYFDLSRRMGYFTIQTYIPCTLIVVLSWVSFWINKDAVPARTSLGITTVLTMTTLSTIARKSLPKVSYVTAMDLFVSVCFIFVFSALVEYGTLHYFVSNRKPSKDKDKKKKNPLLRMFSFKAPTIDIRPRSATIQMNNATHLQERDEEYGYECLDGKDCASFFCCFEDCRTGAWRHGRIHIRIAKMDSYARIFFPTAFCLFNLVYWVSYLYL
Briefly: Whole-cell patch clamp, intrasynaptic functional activity (positive allosteric regulation of GABA-induced current). Type of data set: cell-based. Particulars: patch clamp -60 mV, GABA at EC10-20, α1β2γ2-CHO-TRex cells. The procedure: (§1) The α4β3δ-HEK-FlpIn-TRex stable cell strain was cultured in DMEM+10% FBS complete culture medium, with the selective antibiotics being 10 μg/mL Blasticidin, 100 µg/mL Zeocin, 100 µg/mL Hygromycin, and 0.2 μg/mL Puromycin. The α1β2γ2-CHO-TRex stable cell strain was cultured in DMEM/F12+10% FBS complete culture medium, with the selective antibiotics being 10 μg/mL Blasticidin, 100 μg/mL Zeocin, 300 μg/mL Hygromycin, and […] Puromycin.
(§2) The day before the patch clamp experiment, cells were seeded onto 12 mm polylysine-coated coverslips and then cultured in 35 mm culture dishes, and tetracycline ([…]) was added to induce the expression of GABA receptors. The extracellular fluid had the following composition (in mM): 140 NaCl, 3 KCl, 1.5 MgCl2, 2 CaCl2, 10 HEPES, and 10 Glucose. After thorough mixing, NaOH was added to adjust the pH to 7.4, and sucrose was added to adjust the osmotic pressure to 300-320 mOsm. The fluid was stored at 4° C. The electrode internal solution had the following composition (in mM): 145 KCl, 1 MgCl2, 5 EGTA, 10 HEPES, and 5 MgATP. After thorough mixing, KOH was added to adjust the pH to 7.3, and sucrose was added to adjust the osmotic pressure to 290-300 mOsm. The solution was filtered through a […] before use.
(§3) Whole-cell patch clamp recording was mainly employed in this experiment. The membrane potential was clamped at −60 mV, and receptors were activated using GABA at an EC10-20 concentration ([…]). The test compounds were dissolved in 0.1% DMSO, and perfusion was performed for 30 s prior to GABA stimulation. Finally, the positive allosteric regulating effects of the test compounds on α1β2γ2 or α4β3δ were determined.
(§4) The experimental result for each concentration was expressed as a fold increase in the GABA-induced current caused by the compound. […] At least 5 concentrations are tested to obtain a complete EC50 curve and EC50 values. All experiments were repeated on no less than 3 cells, and data processing was completed using GraphPad prism software. The dose-response curves were fitted using the Hill equation, and the half-maximal activating concentration EC50 and Emax were finally obtained.
On the technique in general: In patch-clamp work, channel activity is measured electrically.
In turn, `C[C@@]1(O)CC[C@H]2[C@H](CC[C@@H]3[C@@H]2CC[C@]2(C)[C@@H](C(=O)Cn4cnn(-c5ccc(F)cc5)c4=O)CC[C@@H]32)C1` [Compound 4] gave an EC50 of 220 nM and an Emax of 390%.

Compound `COc1cccc(-n2ncn(CC(=O)[C@H]3CC[C@H]4[C@@H]5CC[C@@H]6C[C@](C)(O)CC[C@@H]6[C@H]5CC[C@]34C)c2=O)c1` [Compound 5] had an EC50 of 26 nM and an Emax of 410%.

With `Cn1ncn(CC(=O)[C@H]2CC[C@H]3[C@@H]4CC[C@@H]5C[C@](C)(O)CC[C@@H]5[C@H]4CC[C@]23C)c1=O` [Compound 6], a half-maximal effect (EC50) was put at 444 nM and the Emax was determined as 242%.

Test system in another data set: not listed separately
Briefly: In vitro liver microsomal stability assay, human. The data set is classed as in vitro ADME. Particulars: Human liver microsomes. The procedure:
(§5) 1) Preparation of working solutions of test samples: The test samples were diluted with acetonitrile to 100 M.
(§6) 2) Preparation of a working solution of liver microsomes: liver microsomes were diluted with 100 mM phosphate-buffered saline to 0.56 mg/mL.
(§7) 3) Preparation of a working solution of reduced nicotinamide adenine dinucleotide (NADPH): A proper amount of NADPH was weighed out and diluted with phosphate-buffered saline to 20 mM, and an equal volume of a 60 mM MgCl2 solution was added.
(§8) 4) Preparation of a stop solution: Tolbutamide was diluted with acetonitrile to 20 ng/mL, serving as a stop solution containing an internal standard.
(§9) 1) Incubation anti-adsorption EP tubes were prepared and labeled with species, test/control sample, time points (0, 5, 10, 20, 30, 60 min, Blank60, and NCF60), etc.
(§10) 2) 2 L of test or control sample working solution, diluted with acetonitrile to 100 M, and 178 L of liver microsome working solution were added to each tube. For the Blank60 tube, 2 L of acetonitrile was added instead of a test sample. The tubes were pre-incubated in a 37° C. water bath for about 10 min, with each sample tested in triplicate.
(§11) 3) After the pre-incubation was complete, 20 L of NADPH working solution was added to each tube except for the 0 min and NCF60 tubes to start reactions, and 20 L of phosphate-buffered saline (containing 30 mM MgCl2) was added to the NCF60 tube. In the incubation system, the final concentrations of the test and control samples were 1 M, the final concentration of liver microsomes was 0.5 mg/mL, the final concentration of NADPH was 1 mM, and the final concentration of MgCl2 was 3 mM.
(§12) 4) For the 0 min sample, 600 L of stop solution was added before adding the NADPH working solution. After each sample was incubated for its respective time, 600 L of stop solution was added to stop the reaction.
(§13) 5) After the reaction was stopped, each sample was vortexed for 30 s and then centrifuged at 13,500 rpm for 10 min. 100 L of the supernatant was transferred to an EP tube, and 100 L Milli-Q water was added. The mixture was well mixed by vortexing and analyzed by LC-MS/MS.
(§14) 6) Testosterone and dextromethorphan were used as positive control samples under the same conditions to assess the stability and reliability of the system.
(§15) Parameters of the test samples, including their half-lives, intrinsic clearance rates in liver microsomes, and hepatic intrinsic clearance rates, were calculated based on the percentage of test sample remaining.
(In general: Liver microsomes are vesicles of endoplasmic reticulum, rich in cytochrome P450 enzymes.)
`C[C@@]1(O)CC[C@H]2[C@H](CC[C@@H]3[C@@H]2CC[C@]2(C)[C@@H](C(=O)Cn4cnn(-c5ccc(F)cc5)c4=O)CC[C@@H]32)C1` [Compound 4] gave a CLint scaled at 1 µM of 13 mL/min/kg and a half-life at 1 µM of 96.3 min.

Turning to `COc1cccc(-n2ncn(CC(=O)[C@H]3CC[C@H]4[C@@H]5CC[C@@H]6C[C@](C)(O)CC[C@@H]6[C@H]5CC[C@]34C)c2=O)c1` [Compound 5], the CLint scaled at 1 µM came out at 24 mL/min/kg and the half-life at 1 µM is 52.5 min.

Turning to `Cn1ncn(CC(=O)[C@H]2CC[C@H]3[C@@H]4CC[C@@H]5C[C@](C)(O)CC[C@@H]5[C@H]4CC[C@]23C)c1=O` [Compound 6], the intrinsic metabolic clearance (CLint scaled) at 1 µM worked out at 10 mL/min/kg and the half-life at 1 µM turned out to be 126 min.

Staying with this data set, now noted: Human liver microsomes 0.5 mg/mL, NADPH.
Regarding `C[C@@]1(O)CC[C@H]2[C@H](CC[C@@H]3[C@@H]2CC[C@]2(C)[C@@H](C(=O)Cn4cnn(-c5ccc(F)cc5)c4=O)CC[C@@H]32)C1` [Compound 4], the “Remaining amount % at 60 min” value was 64.0%.

In the case of `COc1cccc(-n2ncn(CC(=O)[C@H]3CC[C@H]4[C@@H]5CC[C@@H]6C[C@](C)(O)CC[C@@H]6[C@H]5CC[C@]34C)c2=O)c1` [Compound 5], the “Remaining amount % at 60 min” value amounted to 43.53%.

For `Cn1ncn(CC(=O)[C@H]2CC[C@H]3[C@@H]4CC[C@@H]5C[C@](C)(O)CC[C@@H]5[C@H]4CC[C@]23C)c1=O` [Compound 6], the “Remaining amount % at 60 min” value worked out at 72.92%.

The same data set, now with this note: Human liver microsomes; read-out: CLint(mic).
`C[C@@]1(O)CC[C@H]2[C@H](CC[C@@H]3[C@@H]2CC[C@]2(C)[C@@H](C(=O)Cn4cnn(-c5ccc(F)cc5)c4=O)CC[C@@H]32)C1` [Compound 4]: the microsomal CLint at 1 µM was found to be 14 µL/min/mg.

As for `COc1cccc(-n2ncn(CC(=O)[C@H]3CC[C@H]4[C@@H]5CC[C@@H]6C[C@](C)(O)CC[C@@H]6[C@H]5CC[C@]34C)c2=O)c1` [Compound 5], the microsomal CLint at 1 µM amounted to 26 µL/min/mg.

With `Cn1ncn(CC(=O)[C@H]2CC[C@H]3[C@@H]4CC[C@@H]5C[C@](C)(O)CC[C@@H]5[C@H]4CC[C@]23C)c1=O` [Compound 6], the microsomal CLint at 1 µM is 11 µL/min/mg.

For a further data set, the target named is T2, α4β3δ GABA receptors (α4β3δ-HEK-FlpIn-TRex stable cell strain) (Homo sapiens, UniProt P28472+P48169).
T2 construct: expressed in transfected cells
T2 sequence (P48169 36-554): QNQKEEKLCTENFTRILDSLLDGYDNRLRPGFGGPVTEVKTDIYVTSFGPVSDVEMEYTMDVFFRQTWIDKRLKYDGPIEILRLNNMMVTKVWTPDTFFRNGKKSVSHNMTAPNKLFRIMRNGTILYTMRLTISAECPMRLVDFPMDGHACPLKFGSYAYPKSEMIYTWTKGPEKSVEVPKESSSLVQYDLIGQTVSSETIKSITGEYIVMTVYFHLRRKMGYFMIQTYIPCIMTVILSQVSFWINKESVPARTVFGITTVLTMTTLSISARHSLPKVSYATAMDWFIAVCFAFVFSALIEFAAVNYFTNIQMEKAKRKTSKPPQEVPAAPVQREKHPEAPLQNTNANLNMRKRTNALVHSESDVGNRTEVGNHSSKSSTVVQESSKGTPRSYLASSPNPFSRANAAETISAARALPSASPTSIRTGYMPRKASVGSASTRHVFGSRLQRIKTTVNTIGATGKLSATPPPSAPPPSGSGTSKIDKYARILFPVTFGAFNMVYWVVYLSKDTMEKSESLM
T2 sequence (P28472 26-473): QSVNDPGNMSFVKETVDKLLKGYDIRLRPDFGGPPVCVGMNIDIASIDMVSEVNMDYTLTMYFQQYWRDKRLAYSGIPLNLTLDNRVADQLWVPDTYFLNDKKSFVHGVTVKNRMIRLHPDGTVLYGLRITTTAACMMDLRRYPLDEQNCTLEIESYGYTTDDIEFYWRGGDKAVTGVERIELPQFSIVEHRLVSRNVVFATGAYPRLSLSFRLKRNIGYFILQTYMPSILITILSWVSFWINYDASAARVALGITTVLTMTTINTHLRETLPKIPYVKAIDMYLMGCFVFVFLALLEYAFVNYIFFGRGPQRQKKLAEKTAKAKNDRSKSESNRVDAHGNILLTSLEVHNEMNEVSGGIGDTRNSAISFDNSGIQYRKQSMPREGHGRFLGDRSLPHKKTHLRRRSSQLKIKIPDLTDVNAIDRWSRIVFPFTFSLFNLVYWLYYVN
T2 sequence (O14764 25-452 partner): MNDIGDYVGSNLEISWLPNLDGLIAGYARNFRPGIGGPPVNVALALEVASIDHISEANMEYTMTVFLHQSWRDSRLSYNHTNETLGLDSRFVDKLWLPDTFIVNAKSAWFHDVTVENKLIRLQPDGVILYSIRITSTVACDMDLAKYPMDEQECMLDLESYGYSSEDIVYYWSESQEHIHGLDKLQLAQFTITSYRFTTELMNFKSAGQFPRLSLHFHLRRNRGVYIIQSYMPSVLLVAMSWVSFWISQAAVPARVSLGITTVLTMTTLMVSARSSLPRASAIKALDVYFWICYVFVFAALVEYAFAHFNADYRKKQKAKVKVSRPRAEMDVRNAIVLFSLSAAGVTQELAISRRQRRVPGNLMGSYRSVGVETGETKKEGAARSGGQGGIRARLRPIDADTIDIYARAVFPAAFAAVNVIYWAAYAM
The data set can be described thus: Whole-cell patch clamp, extrasynaptic functional activity (positive allosteric regulation of GABA-induced current). The data set is classed as cell-based. Particulars: patch clamp -60 mV, GABA at EC10-20, α4β3δ-HEK-FlpIn-TRex cells. The procedure: as §1, §2, §3, §4
`C[C@@]1(O)CC[C@H]2[C@H](CC[C@@H]3[C@@H]2CC[C@]2(C)[C@@H](C(=O)Cn4cnn(-c5ccc(F)cc5)c4=O)CC[C@@H]32)C1` [Compound 4] came in with an EC50 of 170 nM and an Emax of 410%.

Compound `COc1cccc(-n2ncn(CC(=O)[C@H]3CC[C@H]4[C@@H]5CC[C@@H]6C[C@](C)(O)CC[C@@H]6[C@H]5CC[C@]34C)c2=O)c1` [Compound 5] displayed an EC50 of 21 nM and an Emax of 570%.

Turning to `Cn1ncn(CC(=O)[C@H]2CC[C@H]3[C@@H]4CC[C@@H]5C[C@](C)(O)CC[C@@H]5[C@H]4CC[C@]23C)c1=O` [Compound 6], the EC50 is 305 nM and the Emax stood at 497%.

Test system in a further data set: not listed separately
Briefly: In vitro liver microsomal stability assay, rat. Type of data set: in vitro ADME. Particulars: Rat liver microsomes. The procedure:
as §5, §6, §7, §8, §9, §10, §11, §12, §13, §14, §15
Compound `C[C@@]1(O)CC[C@H]2[C@H](CC[C@@H]3[C@@H]2CC[C@]2(C)[C@@H](C(=O)Cn4cnn(-c5ccc(F)cc5)c4=O)CC[C@@H]32)C1` [Compound 4] had a CLint scaled at 1 µM of 93 mL/min/kg and a half-life at 1 µM of 27 min.

Consider `COc1cccc(-n2ncn(CC(=O)[C@H]3CC[C@H]4[C@@H]5CC[C@@H]6C[C@](C)(O)CC[C@@H]6[C@H]5CC[C@]34C)c2=O)c1` [Compound 5], for which the CLint scaled at 1 µM stood at 176 mL/min/kg and the half-life at 1 µM stood at 14.1 min.

`Cn1ncn(CC(=O)[C@H]2CC[C@H]3[C@@H]4CC[C@@H]5C[C@](C)(O)CC[C@@H]5[C@H]4CC[C@]23C)c1=O` [Compound 6] yielded a CLint scaled at 1 µM of 117 mL/min/kg and a half-life at 1 µM of 21.3 min.

The data set is the same for the next values; noted with them: Rat liver microsomes 0.5 mg/mL, NADPH.
As for `C[C@@]1(O)CC[C@H]2[C@H](CC[C@@H]3[C@@H]2CC[C@]2(C)[C@@H](C(=O)Cn4cnn(-c5ccc(F)cc5)c4=O)CC[C@@H]32)C1` [Compound 4], the “Remaining amount % at 60 min” value is 37.09%.

As for `COc1cccc(-n2ncn(CC(=O)[C@H]3CC[C@H]4[C@@H]5CC[C@@H]6C[C@](C)(O)CC[C@@H]6[C@H]5CC[C@]34C)c2=O)c1` [Compound 5], the “Remaining amount % at 60 min” value worked out at 14.19%.

Consider `Cn1ncn(CC(=O)[C@H]2CC[C@H]3[C@@H]4CC[C@@H]5C[C@](C)(O)CC[C@@H]5[C@H]4CC[C@]23C)c1=O` [Compound 6], for which the “Remaining amount % at 60 min” value came to 15.45%.

The same data set, now with this note: Rat liver microsomes; read-out: CLint(mic).
As to `C[C@@]1(O)CC[C@H]2[C@H](CC[C@@H]3[C@@H]2CC[C@]2(C)[C@@H](C(=O)Cn4cnn(-c5ccc(F)cc5)c4=O)CC[C@@H]32)C1` [Compound 4], the microsomal CLint at 1 µM was 51 µL/min/mg.

Take `COc1cccc(-n2ncn(CC(=O)[C@H]3CC[C@H]4[C@@H]5CC[C@@H]6C[C@](C)(O)CC[C@@H]6[C@H]5CC[C@]34C)c2=O)c1` [Compound 5]: the microsomal CLint at 1 µM stood at 98 µL/min/mg.

Turning to `Cn1ncn(CC(=O)[C@H]2CC[C@H]3[C@@H]4CC[C@@H]5C[C@](C)(O)CC[C@@H]5[C@H]4CC[C@]23C)c1=O` [Compound 6], the microsomal CLint at 1 µM turned out to be 65 µL/min/mg.
